Where two headings read alike, the source gives them in different places. Ends that are not written are not given here.
How the values were obtained:
HDM2 = HDM2 (Homo sapiens, UniProt Q00987); settings: literature; cited from earlier work
[1] = tested on: SJRBL8 retinoblastoma cell line; assay: Retinoblastoma cell viability, p53-deficient SJRBL8 cells; settings: 10 μM to 1 nM, 72 hours
MDM2, p53 and p21 levels = assay: Immunoblot analysis of p53 pathway induction; settings: 4 μM nutlin-3; Weril, Y79, primary retinoblasts; all cells except 911 cells
retinoblastoma cells = settings: for p53 response: topotecan at LC50 for 1 hour, nutlin-3 treatment
Weril and Y79 cells = settings: lentivirus control-infected cells
Mdm2^Lox/Lox MEFs = assay: Clonal analysis in Mdm2-deficient MEFs (Table 8)
[2] = tested on: p53^LSL MEFs null for Mdm2 and/or MdmX; assay: MTT growth/viability assay in p53^LSL MEFs
Y79 cells = assay: Retinoblastoma cell viability, Y79 cells; assay type: cell-based, human; settings: 72 hours, total racemic drug; read-out: LC50 (the source's name)
Source text: These studies were extended to retinoblastoma cells. […] MDM2, p53 and p21 levels were induced in all cells except for the 911 cells in which p53 was inactivated by the large E1B protein.

[3] = cited from earlier work
[4] = target: MDM2 (amino acid residues 1-188) (Homo sapiens, UniProt Q00987); assay: Fluorescence polarization p53 peptide binding/competition assay, MDM2
[5] = target: T1, MDMX (amino acid residues 1-185) (Homo sapiens, UniProt O15151); assay: Fluorescence polarization p53 peptide binding/competition assay, MDMX
T1 sequence (O15151 1-185): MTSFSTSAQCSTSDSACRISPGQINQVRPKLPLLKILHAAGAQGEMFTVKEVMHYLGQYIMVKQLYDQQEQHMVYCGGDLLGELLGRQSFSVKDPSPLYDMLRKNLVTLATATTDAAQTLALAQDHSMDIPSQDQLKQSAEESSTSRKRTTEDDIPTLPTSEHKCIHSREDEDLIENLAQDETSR

Chain of HDM2 (Q00987 whole entry): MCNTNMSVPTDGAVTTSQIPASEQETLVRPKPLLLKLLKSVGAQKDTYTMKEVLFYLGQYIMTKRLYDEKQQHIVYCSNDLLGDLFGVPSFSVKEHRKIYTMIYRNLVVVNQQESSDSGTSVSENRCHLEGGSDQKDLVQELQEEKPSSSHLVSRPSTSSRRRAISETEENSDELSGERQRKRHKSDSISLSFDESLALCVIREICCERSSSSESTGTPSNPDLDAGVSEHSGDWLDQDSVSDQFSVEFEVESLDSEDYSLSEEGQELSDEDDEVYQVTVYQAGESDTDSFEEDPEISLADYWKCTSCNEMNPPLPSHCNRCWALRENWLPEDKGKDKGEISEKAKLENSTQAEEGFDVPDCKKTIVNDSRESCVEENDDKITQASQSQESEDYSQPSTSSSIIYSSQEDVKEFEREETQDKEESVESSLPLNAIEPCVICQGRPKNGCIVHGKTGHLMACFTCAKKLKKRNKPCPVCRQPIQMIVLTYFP
Chain of MDM2 (amino acid residues 1-188) (Q00987 1-188): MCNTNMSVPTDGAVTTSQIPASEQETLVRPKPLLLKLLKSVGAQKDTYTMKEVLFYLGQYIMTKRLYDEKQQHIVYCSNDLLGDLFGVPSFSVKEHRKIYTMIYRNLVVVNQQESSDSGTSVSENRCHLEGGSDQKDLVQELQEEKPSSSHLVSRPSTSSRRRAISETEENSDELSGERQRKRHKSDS

O=C(O)COc1ccc(C(=O)C=Cc2ccc(Cl)c(Cl)c2)cc1 [Trial B-1, {4-[3-(3,4-dichloro-phenyl)-acryloyl]-phenoxy}-acetic acid]
affinity / inhibition of p53/HDM2 complex (HDM2): high micromolar affinity

COc1ccc(C2=N[C@@H](c3ccc(Cl)cc3)[C@@H](c3ccc(Cl)cc3)N2C(=O)N2CCNC(=O)C2)c(OC(C)C)c1 [nutlin-3]
viability [1]: no decrease in viability at any concentration tested | response to nutlin-3 with MDMX cDNA (Weril cells; Weril cells, MDMX cDNA): more resistant | response to nutlin-3 with MDMX siRNA (Weril cells; Weril cells, MDMX siRNA): sensitized | CC50 (Weril cells; read-out: LC50 (50% lethal concentration), 72 hours, total racemic drug): 700 nM | CC50 (Weril cells; read-out: LC50, Weril cells transfected with control siRNA): 600 nM | CC50 (Weril cells; read-out: LC50, Weril cells transfected with p53 siRNA): 10000 nM | MDM2, p53 and p21 levels (MDM2, p53 and p21 levels): induced | effect of nutlin-3 alone (retinoblastoma cells; 10 nM): ineffective alone | p53 response (retinoblastoma cells): induced a p53 response | proliferation of control-infected cells (Weril and Y79 cells): inhibited the proliferation | MdmX rescue of the loss of Mdm2 in MEFs (Mdm2^Lox/Lox MEFs; 1.25 μM or 5 μM racemic nutlin-3): blocked | number of cells per clone (Mdm2^Lox/Lox MEFs; GFP virus, 1.25 μM racemic nutlin-3, Day 2): 1.0 ± 0^ | number of cells per clone (Mdm2^Lox/Lox MEFs; GFP virus, 1.25 μM racemic nutlin-3, Day 3): 1.5 ± 0.4 | number of cells per clone (Mdm2^Lox/Lox MEFs; GFP virus, 1.25 μM racemic nutlin-3, Day 4): 2.1 ± 0.7 | number of cells per clone (Mdm2^Lox/Lox MEFs; GFP virus, 5.0 μM racemic nutlin-3, Day 2): 1.1 ± 0.2 | number of cells per clone (Mdm2^Lox/Lox MEFs; GFP virus, 5.0 μM racemic nutlin-3, Day 3): 1.5 ± 0.4 | number of cells per clone (Mdm2^Lox/Lox MEFs; Mdm2-GFP virus, 1.25 μM racemic nutlin-3, Day 2): 3.1 ± 1.5 | number of cells per clone (Mdm2^Lox/Lox MEFs; Mdm2-GFP virus, 1.25 μM racemic nutlin-3, Day 3): 6.6 ± 5.2 | number of cells per clone (Mdm2^Lox/Lox MEFs; Mdm2-GFP virus, 1.25 μM racemic nutlin-3, Day 4): 10.0 ± 7.4 | number of cells per clone (Mdm2^Lox/Lox MEFs; Mdm2-GFP virus, 1.25 μM racemic nutlin-3, Day 5): 12.9 ± 8.1 | number of cells per clone (Mdm2^Lox/Lox MEFs; Mdm2-GFP virus, 1.25 μM racemic nutlin-3, Day 6): 14.5 ± 9.3 | number of cells per clone (Mdm2^Lox/Lox MEFs; Mdm2-GFP virus, 5.0 μM racemic nutlin-3, Day 2): 3.0 ± 2.2 | number of cells per clone (Mdm2^Lox/Lox MEFs; Mdm2-GFP virus, 5.0 μM racemic nutlin-3, Day 3): 3.3 ± 1.4 | number of cells per clone (Mdm2^Lox/Lox MEFs; Mdm2-GFP virus, 5.0 μM racemic nutlin-3, Day 4): 3.9 ± 2.1 | number of cells per clone (Mdm2^Lox/Lox MEFs; Mdm2-GFP virus, 5.0 μM racemic nutlin-3, Day 5): 3.1 ± 1.7 | number of cells per clone (Mdm2^Lox/Lox MEFs; Mdm2-GFP virus, 5.0 μM racemic nutlin-3, Day 6): 2.8 ± 2.0 | number of cells per clone (Mdm2^Lox/Lox MEFs; MdmX-GFP virus, 1.25 μM racemic nutlin-3, Day 2): 1.1 ± 0.2 | number of cells per clone (Mdm2^Lox/Lox MEFs; MdmX-GFP virus, 1.25 μM racemic nutlin-3, Day 3): 1.9 ± 0.6 | number of cells per clone (Mdm2^Lox/Lox MEFs; MdmX-GFP virus, 1.25 μM racemic nutlin-3, Day 4): 2.8 ± 1.7 | number of cells per clone (Mdm2^Lox/Lox MEFs; MdmX-GFP virus, 1.25 μM racemic nutlin-3, Day 5): 3.4 ± 2.2 | number of cells per clone (Mdm2^Lox/Lox MEFs; MdmX-GFP virus, 1.25 μM racemic nutlin-3, Day 6): 2.1 ± 1.9 | number of cells per clone (Mdm2^Lox/Lox MEFs; MdmX-GFP virus, 5.0 μM racemic nutlin-3, Day 2): 1.2 ± 0.4 | number of cells per clone (Mdm2^Lox/Lox MEFs; MdmX-GFP virus, 5.0 μM racemic nutlin-3, Day 3): 1.1 ± 0.1 | number of cells per clone (Mdm2^Lox/Lox MEFs; MdmX-GFP virus, 5.0 μM racemic nutlin-3, Day 4): 1.3 ± 0.2 | number of cells per clone (Mdm2^Lox/Lox MEFs; MdmX-GFP virus, 5.0 μM racemic nutlin-3, Day 5): 1.0 ± 0^ | sensitivity of MEFs to nutlin-3 ([2]; MdmX^+/− MEFs after Cre): sensitive | sensitivity of MEFs to nutlin-3 ([2]; MdmX^−/− MEFs after Cre): insensitive | CC50 (Y79 cells): 2000 nM

COc1ccc(C2=N[C@@H](c3ccc(Cl)cc3)[C@@H](c3ccc(Cl)cc3)N2C(=O)N2CCNC(=O)C2)c(OC(C)C)c1 [nutlin-3a]
penetration into the vitreous ([3]; oral and intravenous formulations): poor penetration into the vitreous

CC[C@@]1(O)C(=O)OCc2c1cc1n(c2=O)Cc2cc3c(CN(C)C)c(O)ccc3nc2-1 [topotecan, Topotecan]
intraocular penetration ([3]; systemic administration, murine models of retinoblastoma): good intraocular penetration | p53 response (retinoblastoma cells): induced a p53 response

FMDYWEGL [SEQ ID NO:4]
affinity / inhibition of p53/HDM2 complex (HDM2): micromolar affinity

MPRFMDYWEGLN [SEQ ID NO:2]
affinity / inhibition of p53/HDM2 complex (HDM2): sub-micromolar affinity | fold increase in potency compared to wild-type p53-derived peptide (SEQ ID NO:3) (HDM2): 28 fold

NH2-Gly-Ser-Gly-Ser-Ser-Gln-Glu-Thr-Ala-Ser-Asp-Leu-Ala-Lys-Leu-Ala-Pro-Glu-Asn-OH (H-GSGSSQETASDLAKLAPEN-OH) [p53 mutant]
MDM2 binding [4]: no MDM2 or MDMX binding | MDMX binding [5]: no MDM2 or MDMX binding

chlorofusin
affinity / inhibition of p53/HDM2 complex (HDM2): micromolar inhibitor
